Measured values reported in patent publication US20190053492A1, “SUBSTITUTED PYRIDINE COMPOUNDS AS PESTICIDES” (Bayer CropScience Aktiengesellschaft, priority 2016, published 2019).
Where two headings read alike, the source gives them in different places.

Tests used:
[1] = log P by HPLC on reversed-phase column (C 18), EEC Directive 79/831 Annex V.A8; type: physicochemical; conditions: 55° C.; for LOGP_HCOOH: log P (HCOOH); for chromatographic logP: reversed-phase HPLC column (C 18)
Protocol: Temperature: 55° C. […] Called log P (HCOOH) in the table. […] Called log P (neutral) in the table.

[2] = tested on: Spodoptera frugiperda; test: Spodoptera frugiperda spray test; type: in vivo; conditions: after 7 days, maize leaf discs
Protocol: Spodoptera frugiperda—Spray Test
Solvent: 78.0 parts by weight of acetone • • 1.5 parts by weight of dimethylformamide
Emulsifier: alkylaryl polyglycol ether
To produce a suitable active ingredient formulation, 1 part by weight of active ingredient is dissolved with the specified parts by weight of solvent and made up with water containing an emulsifier concentration of 1000 ppm until the desired concentration is attained. To produce further test concentrations, the formulation is diluted with emulsifier-containing water.
Leaf discs of maize (Zea mays) are sprayed with an active ingredient formulation of the desired concentration and, after drying, populated with caterpillars of the armyworm (Spodoptera frugiperda).
After 7 days, the efficacy in % is determined. 100% means that all the caterpillars have been killed; 0% means that no caterpillar has been killed.

[3] = acidic range at pH 2.7, 0.1% aqueous formic acid and acetonitrile, HPLC on reversed-phase column (C 18)
[4] = acidic range pH 2.7, 0.1% aqueous formic acid and acetonitrile, reversed-phase column (C 18)
[5] = log P, neutral range, HPLC on reversed-phase column (C 18)
[6] = log P (neutral), HPLC reversed-phase column (C 18)

Compound | LOGP_HCOOH [1, 3] | LOGP_HCOOH [1, 4] | LOGP_NEUTRAL [1, 5] | efficacy (caterpillars killed) ([2]; application rate 500 g/ha) [%] | efficacy (caterpillars killed) ([2]; application rate 100 g/ha) [%] | other results
O=C(NCc1cc(F)c(Cl)cc1Cl)c1cc(-c2ccc(C(F)(F)F)cc2)cc(NC(=O)C2CC2)n1 [Example I-059] |  | 5.09 | 4.93 | 100 |  | 
N#CC1CCC(CNC(=O)c2cc(-c3ccc(OC(F)(F)F)cc3)cc(NC(=O)C3CC3)n2)CC1 (stereo not shown) [Example I-198] | 3.85 |  | 3.75 | 100 | 100 | 
N#Cc1ccc(CNC(=O)c2cc(-c3ccc(C(F)(F)F)nc3F)cc(NC(=O)C3CC3)n2)cc1 [Example I-143] | 3.24 |  |  |  | 100 | 
N#Cc1ccc(CNC(=O)c2cc(-c3ccc(C(F)(F)C(F)(F)F)c(Cl)c3)cc(NC(=O)C3CC3)n2)cc1 [Example I-273] |  | 4.45 |  | 100 |  | 
O=C(NC1CCC1)c1cc(-c2ccc(C(F)(F)F)cc2)cc(NC(=O)C2CC2)n1 [Example I-033] |  | 3.88 | 3.80 | 100 |  | 
N#Cc1ccc(CNC(=O)c2cc(-c3ccc(C(F)(F)F)cc3)cc(NC(=O)c3ccccc3Cl)n2)cc1 [Example I-047] |  | 4.26 | 4.15 | 83 |  | 
N#Cc1ccc(CNC(=O)c2cc(-c3ccc(OC(F)(F)F)cc3)cc(NC(=O)Cc3ccc([N+](=O)[O-])cc3)n2)cc1 [Example I-211] | 4.16 |  | 4.01 | 100 | 83 | 
O=C(NCc1ccc(C(F)(F)F)cc1F)c1cc(-c2ccc(C(F)(F)F)cc2)cc(NC(=O)C2CC2)n1 [Example I-054] |  | 4.68 | 4.59 | 100 |  | 
CCN(C(=O)C(C)C)c1cc(-c2ccc(OC(F)(F)F)cc2)cc(C(=O)NCc2ccc(C#N)cc2)n1 [Example I-221] | 4.20 |  | 4.20 |  | 80 | 
CN(C(=O)c1cc(-c2ccc(C(F)(F)F)cc2)cc(NC(=O)C2CC2)n1)c1cccnc1 [Example I-034] |  | 2.73 | 2.72 | 100 |  | 
O=C(NCC1CCC1)c1cc(-c2ccc(C(F)(F)F)cc2)cc(NC(=O)C2CC2)n1 [Example I-049] |  | 4.21 | 4.10 | 83 |  | 
O=C(NCC1CCC(C(F)(F)F)CC1)c1cc(-c2ccc(OC(F)(F)F)cc2)cc(NC(=O)C2CC2)n1 (stereo not shown) [Example I-156] | 4.97 |  | 4.85 | 100 | 100 | 
N#Cc1ccc(CNC(=O)c2cc(-c3cc(F)c(C(F)(F)C(F)(F)F)cc3Cl)cc(NC(=O)C3CC3)n2)cc1 [Example I-269] |  | 4.34 |  | 83 |  | 
O=C(NC1CCCC1)c1cc(-c2ccc(OC(F)(F)F)cc2)cc(NC(=O)C2CC2)n1 [Example I-169] | 4.35 |  | 4.22 | 100 | 100 | 
CC(C)CNC(=O)c1cc(-c2ccc(C(F)(F)F)cc2)cc(NC(=O)C2CC2)n1 [Example I-032] |  | 4.06 | 3.98 | 100 |  | 
N#Cc1ccc(CNC(=O)c2cc(-c3ccc(C(F)(F)F)cc3)cc(NC(=O)c3ccc(Cl)cc3)n2)cc1 [Example I-023] |  | 4.77 | 4.66 | 83 |  | 

Continued, in another order:

LOGP_HCOOH [1, 3] | LOGP_HCOOH [1, 4] | LOGP_NEUTRAL [1, 5] | Compound | efficacy (caterpillars killed) ([2]; application rate 500 g/ha) [%] | efficacy (caterpillars killed) ([2]; application rate 100 g/ha) [%] | other results
3.68 |  |  | N#Cc1ccc2[nH]nc(NC(=O)c3cc(-c4ccc(OC(F)(F)F)cc4)cc(NC(=O)C4CC4)n3)c2c1 [Example I-166] | 83 |  | 
 | 4.49 | 4.43 | O=C(NCc1cccc(Cl)c1)c1cc(-c2ccc(C(F)(F)F)cc2)cc(NC(=O)C2CC2)n1 [Example I-006] | 100 |  | 
 | 4.57 |  | N#Cc1ccc(CNC(=O)c2cc(-c3ccc(OC(F)(F)F)cc3)cc(NC(=O)C3(C(F)(F)F)CC3)n2)cc1 [Example I-242] | 100 |  | LOGP_NEUTRAL [1, 6]: 4.63
 | 3.81 | 3.67 | Cn1ncc2cccc(CNC(=O)c3cc(-c4ccc(OC(F)(F)F)cc4)cc(NC(=O)C4CC4)n3)c21 [Example I-092] | 100 |  | 
4.18 |  | 3.99 | N#Cc1ccc(CNC(=O)c2cc(-c3ccc(OC(F)(F)F)cc3Cl)cc(NC(=O)C3CC3)n2)cc1 [Example I-122] | 100 | 100 | 
 | 4.94 | 4.79 | O=C(NCCCc1ccc(C(F)(F)F)cc1)c1cc(-c2ccc(C(F)(F)F)cc2)cc(NC(=O)C2CC2)n1 [Example I-058] | 100 |  | 
4.42 |  | 4.24 | N#Cc1ccc2c(c1)CCC2NC(=O)c1cc(-c2ccc(OC(F)(F)F)cc2)cc(NC(=O)C2CC2)n1 (stereo not shown) [Example I-164] | 100 | 100 | 
4.01 |  | 3.91 | COC(C)C(=O)Nc1cc(-c2ccc(OC(F)(F)F)cc2)cc(C(=O)NCc2ccc(C#N)cc2)n1 (stereo not shown) [Example I-223] | 100 |  | 
 | 4.24 |  | O=C(NCc1cccc(F)c1)c1cc(-c2ccc(C(F)(F)F)cc2)cc(NC(=O)C2CC2)n1 [Example I-003] | 83 |  | 
4.28 |  |  | CCC(C#N)(CC)NC(=O)c1cc(-c2ccc(OC(F)(F)F)cc2)cc(NC(=O)C2CC2)n1 [Example I-139] | 100 |  | 
3.39 |  | 3.35 | CC(=O)N(C)c1cc(-c2ccc(OC(F)(F)F)cc2)cc(C(=O)NCc2ccc(C#N)cc2)n1 [Example I-220] | 100 |  | 
5.54 |  | 5.43 | N#Cc1ccc(CNC(=S)c2cc(-c3ccc(OC(F)(F)F)cc3)cc(NC(=S)C3CC3)n2)cc1 [Example I-181, N-(4-Cyanobenzyl)-6-[(cyclopropylcarbonothioyl)amino]-4-[4-(trifluoromethoxy)phenyl]pyridine-2-carbothioamide] |  |  | chromatographic logP ([1]; pH 2.7, LC-MS acidic range, pH 2.7, 0.1% formic acid/acetonitrile, read-out: log P (acidic) / log P (HCOOH)): 5.54; chromatographic logP ([1]; pH 7.8, LC-MS neutral range, pH 7.8, ammonium hydrogencarbonate/acetonitrile, read-out: log P (neutral)): 5.43; pest or weed control at 100 g/ha ([2]; Spodoptera frugiperda, foliar, 168 h, application rate 100 g/ha, read-out: efficacy (caterpillars killed)): 100%; pest or weed control at 500 g/ha ([2]; Spodoptera frugiperda, foliar, 168 h, application rate 500 g/ha, read-out: efficacy (caterpillars killed)): 100%
 | 4.22 | 4.05 | COc1ccc(CNC(=O)c2cc(-c3ccc(OC(F)(F)F)cc3)cc(NC(=O)C3CC3)n2)cc1 [Example I-083] | 100 | 83 | 
4.68 |  | 4.55 | O=C(NCC1CCCC1)c1cc(-c2ccc(OC(F)(F)F)cc2)cc(NC(=O)C2CC2)n1 [Example I-170] | 100 | 83 | 
 | 4.67 | 4.53 | O=C(NCc1ccc(Cl)c(F)c1)c1cc(-c2ccc(OC(F)(F)F)cc2)cc(NC(=O)C2CC2)n1 [Example I-062] | 100 | 83 | 
3.44 |  | 3.34 | N#Cc1ccc(CNC(=O)c2cc(-c3ccc(OC(F)(F)F)cc3)cc(NC(=O)c3cnco3)n2)cc1 [Example I-212] | 100 |  | 
 | 3.80 | 3.76 | N#Cc1ccc(CCNC(=O)c2cc(-c3ccc(C(F)(F)F)cc3)cc(NC(=O)C3CC3)n2)cc1 [Example I-046] | 83 |  | 
 | 5.00 | 4.89 | O=C(NCc1ccc(Cl)cc1Cl)c1cc(-c2ccc(C(F)(F)F)cc2)cc(NC(=O)C2CC2)n1 [Example I-010] | 100 |  | 
3.59 |  | 3.51 | N#CCCCCCNC(=O)c1cc(-c2ccc(OC(F)(F)F)cc2)cc(NC(=O)C2CC2)n1 [Example I-200] | 100 | 100 | 
 | 4.25 |  | N#Cc1ccc(CNC(=O)c2cc(-c3ccc(OC(F)(F)F)cc3)cc(NC(=O)c3ccc(Cl)nc3)n2)cc1 [Example I-256] | 100 |  | LOGP_NEUTRAL [1, 6]: 4.20
